Test results published in ChEMBL document CHEMBL1201862, “PubChem BioAssay data set” (2004).
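How tested: cells in 96-well plates exposed to compound for 48 hours at five concentrations. At the GI50, growth is halved.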 Active and inactive are the calls of the source. Rule as the data show it: active = GI50 up to about 1.1 µM and inactive = higher.

Columns and labels:
Experiment in all cases: growth of human tumour cells (NCI), 48 h
[1] = tested on: SF-539
[2] = tested on: HOP-62
[3] = tested on: SW-620
[4] = tested on: CAKI-1
[5] = tested on: SK-MEL-5
[6] = tested on: HCT-15
[7] = tested on: NCI-H460
[8] = tested on: Malme-3M
[9] = tested on: DLD-1
[10] = tested on: SNB-19
[11] = tested on: K562
[12] = tested on: COLO 205
[13] = tested on: HOP-92
[14] = tested on: CCRF-CEM
[15] = tested on: A549
[16] = tested on: SF-268
[17] = tested on: HCC 2998
[18] = tested on: RXF 393

Row | SMILES | GI50 [1] | GI50 [2] | GI50 [3] | GI50 [4] | GI50 [5] | GI50 [6] [µM] | GI50 [7] | GI50 [8] | GI50 [9] | GI50 [10] | GI50 [11] | GI50 [12] | GI50 [13] | GI50 [14] | GI50 [15] | GI50 [16] | GI50 [17] | GI50 [18]
1 | COc1ccccc1NC(=O)C1=C(C)NC(C)=C(C(=O)Nc2ccccc2OC)C1c1ccccc1Cl | 26.1 µM (inactive) | > 100 µM (inactive) | > 100 µM (inactive) | > 100 µM (inactive) | 47.8 µM (inactive) | 56.2 | 59.3 µM (inactive) | > 100 µM (inactive) | > 100 µM (inactive) | > 100 µM (inactive) | 32.7 µM (inactive) | > 100 µM (inactive) | > 100 µM (inactive) | 38.4 µM (inactive) | 41.6 µM (inactive) | > 100 µM (inactive) | > 100 µM (inactive) | –
2 | Cc1c(C)c2ccc(OC(C)C(=O)O)cc2oc1=O (configuration not stated) | > 100 µM (inactive) | > 100 µM (inactive) | > 100 µM (inactive) | > 100 µM (inactive) | > 100 µM (inactive) | – | > 100 µM (inactive) | > 100 µM (inactive) | > 100 µM (inactive) | > 100 µM (inactive) | > 100 µM (inactive) | > 100 µM (inactive) | > 100 µM (inactive) | > 100 µM (inactive) | > 100 µM (inactive) | > 100 µM (inactive) | > 100 µM (inactive) | > 100 µM (inactive)
3 | Clc1cccc(N2CCN(CCCN3CCc4c([nH]c5ccccc45)C3c3cccnc3)CC2)c1 (configuration not stated) | 3.61 µM (inactive) | 14.3 µM (inactive) | 13 µM (inactive) | 9.68 µM (inactive) | 5.32 µM (inactive) | 8.81 | 6.22 µM (inactive) | 2.54 µM (inactive) | 11.2 µM (inactive) | 20.6 µM (inactive) | 3.78 µM (inactive) | 2.88 µM (inactive) | 8.69 µM (inactive) | 6.76 µM (inactive) | 7.78 µM (inactive) | – | – | 1.58 µM (inactive)
4 | COc1cccc2c1C(=O)c1c(O)c3c(c(O)c1C2=O)C[C@@](O)(C(=O)CN1CCOCC1)C[C@@H]3OC1CC(N)C(O)C(C)O1 (some centres not stated) | 4.09 µM (inactive) | 2.48 µM (inactive) | 2.34 µM (inactive) | – | 3.11 µM (inactive) | 12.4 | 0.446 µM (active) | 3.27 µM (inactive) | 7.71 µM (inactive) | 2.62 µM (inactive) | 2.9 µM (inactive) | 5.94 µM (inactive) | – | – | 2.43 µM (inactive) | 4.47 µM (inactive) | 5.73 µM (inactive) | 6.41 µM (inactive)
5 | CCCCN(C)/N=N/c1[nH]cnc1C(N)=O | > 100 µM (inactive) | – | > 100 µM (inactive) | 20.3 µM (inactive) | > 100 µM (inactive) | > 100 | > 100 µM (inactive) | > 86.9 µM (inactive) | > 100 µM (inactive) | > 100 µM (inactive) | > 80.7 µM (inactive) | > 100 µM (inactive) | 47.6 µM (inactive) | 52.4 µM (inactive) | > 100 µM (inactive) | > 100 µM (inactive) | > 94.4 µM (inactive) | > 66.7 µM (inactive)
6 | O=C1C2=C(C3=NCCc4c[nH]c1c43)c1c(cc(Br)c(O)c1Br)CCN2 | 13.5 µM (inactive) | 25.3 µM (inactive) | 15.2 µM (inactive) | 20.3 µM (inactive) | 9.1 µM (inactive) | 11.5 | 9.27 µM (inactive) | – | 8.2 µM (inactive) | 17.9 µM (inactive) | 15 µM (inactive) | 3.31 µM (inactive) | 20.6 µM (inactive) | 2.56 µM (inactive) | 18.6 µM (inactive) | 9.25 µM (inactive) | 5.55 µM (inactive) | 14.8 µM (inactive)
7 | O=C1C=CC(=O)C12CCc1ccccc12 | > 100 µM (inactive) | > 100 µM (inactive) | 64.7 µM (inactive) | > 31.6 µM (inactive) | > 100 µM (inactive) | > 72.8 | > 100 µM (inactive) | > 100 µM (inactive) | > 63.8 µM (inactive) | > 100 µM (inactive) | 36.4 µM (inactive) | 57.5 µM (inactive) | > 100 µM (inactive) | 28.5 µM (inactive) | > 100 µM (inactive) | > 100 µM (inactive) | > 100 µM (inactive) | > 94.6 µM (inactive)
8 | Clc1ccc(-c2c(C3=NCCCN3)nnn2-c2ccccc2)cc1 | > 100 µM (inactive) | > 100 µM (inactive) | 20.2 µM (inactive) | > 100 µM (inactive) | > 100 µM (inactive) | 43.6 | 33.6 µM (inactive) | > 100 µM (inactive) | 75 µM (inactive) | > 100 µM (inactive) | 41.7 µM (inactive) | 34.9 µM (inactive) | 34.9 µM (inactive) | 35.9 µM (inactive) | > 100 µM (inactive) | > 100 µM (inactive) | > 100 µM (inactive) | > 100 µM (inactive)
9 | C[C@]12CCC(=O)C(O)=C1CCC2=O | > 100 µM (inactive) | > 100 µM (inactive) | > 100 µM (inactive) | > 100 µM (inactive) | > 100 µM (inactive) | > 100 | > 100 µM (inactive) | > 100 µM (inactive) | > 100 µM (inactive) | > 100 µM (inactive) | – | > 100 µM (inactive) | > 100 µM (inactive) | > 100 µM (inactive) | > 100 µM (inactive) | > 100 µM (inactive) | > 100 µM (inactive) | > 100 µM (inactive)
10 | CC(=O)OCCOCNC(=S)N/N=C/c1ccc([N+](=O)[O-])s1 | 34 µM (inactive) | > 100 µM (inactive) | 30.5 µM (inactive) | – | 25.7 µM (inactive) | 30.4 | 42.4 µM (inactive) | 48.4 µM (inactive) | 31.1 µM (inactive) | > 100 µM (inactive) | 21.7 µM (inactive) | 2.08 µM (inactive) | > 100 µM (inactive) | 4.72 µM (inactive) | 43.4 µM (inactive) | 61.9 µM (inactive) | 43.2 µM (inactive) | > 100 µM (inactive)
11 | O=C1C[S+]([O-])c2ccccc2N1 (configuration not stated) | > 100 µM (inactive) | > 100 µM (inactive) | – | > 100 µM (inactive) | > 100 µM (inactive) | > 100 | 66.1 µM (inactive) | > 100 µM (inactive) | > 100 µM (inactive) | > 100 µM (inactive) | > 100 µM (inactive) | 30.8 µM (inactive) | > 100 µM (inactive) | > 100 µM (inactive) | > 100 µM (inactive) | 71.8 µM (inactive) | > 100 µM (inactive) | > 100 µM (inactive)
12 | CCOC(=N)CC(=O)Nc1cccc(C)c1C | > 100 µM (inactive) | > 100 µM (inactive) | > 100 µM (inactive) | > 100 µM (inactive) | > 100 µM (inactive) | – | > 100 µM (inactive) | > 100 µM (inactive) | > 100 µM (inactive) | > 100 µM (inactive) | > 10 µM (inactive) | > 100 µM (inactive) | – | > 100 µM (inactive) | > 100 µM (inactive) | > 100 µM (inactive) | > 100 µM (inactive) | > 100 µM (inactive)
